Laboratory results: patent US11931424B2, “Combination MCL-1 inhibitors with anti-body drug conjugates” (Gilead Sciences, Inc., priority 2021, dated 2024)

Test system: panel of breast cancer cell lines
Test: Compound A with targeted agents and chemotherapies, 72-hour in vitro proliferation assays
Format: cell-based
Conditions: 72-hour proliferation
[1] = AU565 cell line, compound A × partner
[2] = BT-20 cell line, compound A × partner
[3] = BT-474 cell line, compound A × partner
[4] = BT-549 cell line, compound A × partner
[5] = CAL-51 cell line, compound A × partner
[6] = CAL-85-1 cell line, compound A × partner
[7] = CAL-120 cell line, compound A × partner
[8] = CAL-148 cell line, compound A × partner
[9] = CAMA-1 cell line, compound A × partner
[10] = DU-4475 cell line, compound A × partner
[11] = EVSA-T cell line, compound A × partner
[12] = HCC1143 cell line, compound A × partner
[13] = MCF7 cells, Compound A × partner agent
[14] = MDA-MB-175-VII cells, Compound A × partner agent
[15] = MDA-MB-231 cells, Compound A × partner agent
[16] = MDA-MB-361 cells, Compound A × partner agent
[17] = MDA-MB-436 cells, Compound A × partner agent
[18] = MDA-MB-453 cells, Compound A × partner agent
[19] = MDA-MB-468 cells, Compound A × partner agent
[20] = SK-BR-3 cells, Compound A × partner agent
[21] = SUM159PT cells, combination of compound A with the named agent
[22] = T47D cells, combination of compound A with the named agent
[23] = ZR-75-1 cells, combination of compound A with the named agent
[24] = ZR-75-30 cells, combination of compound A with the named agent

N.N.[Cl][Pt][Cl] [Cisplatin]
Best CI [1]: 0.79
Bliss Volume [1]: 7.67
HSA volume [1]: −6.49
Loewe Volume [1]: −5.19
Synergy Score [1]: 1.66
Best CI [2]: 0.90
Bliss Volume [2]: 13.49
HSA volume [2]: −0.68
Loewe Volume [2]: −2.71
Synergy Score [2]: 2.27
Best CI [3]: 0.47
Bliss Volume [3]: −2.63
HSA volume [3]: −4.63
Loewe Volume [3]: −4.42
Synergy Score [3]: 2.85
Best CI [4]: 1.01
Bliss Volume [4]: 7.35
HSA volume [4]: 2.86
Loewe Volume [4]: 4.16
Synergy Score [4]: 6.80
Best CI [5]: 0.48
Bliss Volume [5]: 7.18
HSA volume [5]: 4.36
Loewe Volume [5]: 6.98
Synergy Score [5]: 9.30
Best CI [6]: 1.09
Bliss Volume [6]: 6.84
HSA volume [6]: 4.63
Loewe Volume [6]: 4.66
Synergy Score [6]: 6.29
Best CI [7]: 0.19
Bliss Volume [7]: 1.51
HSA volume [7]: 0.51
Loewe Volume [7]: 1.48
Synergy Score [7]: 1.13
Best CI [8]: 0.13
Bliss Volume [8]: 19.20
HSA volume [8]: 19.03
Loewe Volume [8]: 18.76
Synergy Score [8]: 37.06
Best CI [9]: 0.23
Bliss Volume [9]: 16.63
HSA volume [9]: 9.61
Loewe Volume [9]: 9.28
Synergy Score [9]: 18.49
Best CI [10]: 0.29
Bliss Volume [10]: 14.10
HSA volume [10]: 5.48
Loewe Volume [10]: 5.54
Synergy Score [10]: 7.00
Best CI [11]: 0.39
Bliss Volume [11]: 20.06
HSA volume [11]: 3.60
Loewe Volume [11]: 1.90
Synergy Score [11]: 2.53
Best CI (HCC38, compound A × partner): 0.60
Best CI Level (HCC38, compound A × partner): 115
Bliss Volume (HCC38, compound A × partner): 8.46
HSA volume (HCC38, compound A × partner): 3.08
Loewe Volume (HCC38, compound A × partner): 2.06
Synergy Score (HCC38, compound A × partner): 6.47
Best CI (HCC70, compound A × partner): 0.45
Best CI Level (HCC70, compound A × partner): 175
Bliss Volume (HCC70, compound A × partner): 18.00
HSA volume (HCC70, compound A × partner): 4.42
Loewe Volume (HCC70, compound A × partner): 2.24
Synergy Score (HCC70, compound A × partner): 9.16
Best CI [12]: 0.39
Bliss Volume [12]: −0.20
HSA volume [12]: −5.78
Loewe Volume [12]: −3.31
Synergy Score [12]: 2.45
Best CI (HCC1569, compound A × partner): 0.43
Best CI Level (HCC1569, compound A × partner): 25
Bliss Volume (HCC1569, compound A × partner): 1.33
HSA volume (HCC1569, compound A × partner): −1.41
Loewe Volume (HCC1569, compound A × partner): −2.74
Synergy Score (HCC1569, compound A × partner): 1.82
Best CI (HCC1806, compound A × partner): 0.22
Best CI Level (HCC1806, compound A × partner): 70
Bliss Volume (HCC1806, compound A × partner): 8.46
HSA volume (HCC1806, compound A × partner): 3.81
Loewe Volume (HCC1806, compound A × partner): 5.93
Synergy Score (HCC1806, compound A × partner): 7.76
Best CI (HCC1937, compound A × partner): 1.07
Best CI Level (HCC1937, compound A × partner): 105
Bliss Volume (HCC1937, compound A × partner): 1.32
HSA volume (HCC1937, compound A × partner): −1.15
Loewe Volume (HCC1937, compound A × partner): −0.59
Synergy Score (HCC1937, compound A × partner): 1.75
Best CI (HCC1954, compound A × partner): 0.84
Best CI Level (HCC1954, compound A × partner): 180
Bliss Volume (HCC1954, compound A × partner): 5.89
HSA volume (HCC1954, compound A × partner): −0.89
Loewe Volume (HCC1954, compound A × partner): −1.88
Synergy Score (HCC1954, compound A × partner): 5.58
Best CI (HCC2218, compound A × partner): 0.54
Best CI Level (HCC2218, compound A × partner): 165
Bliss Volume (HCC2218, compound A × partner): 9.34
HSA volume (HCC2218, compound A × partner): 2.71
Loewe Volume (HCC2218, compound A × partner): −0.66
Synergy Score (HCC2218, compound A × partner): 7.99
Best CI (HDQ-P1, compound A × partner): 0.60
Best CI Level (HDQ-P1, compound A × partner): 30
Bliss Volume (HDQ-P1, compound A × partner): 0.53
HSA volume (HDQ-P1, compound A × partner): −0.23
Loewe Volume (HDQ-P1, compound A × partner): 0.64
Synergy Score (HDQ-P1, compound A × partner): 1.46
Best CI (HMC-1-8, compound A × partner): 0.35
Best CI Level (HMC-1-8, compound A × partner): 180
Bliss Volume (HMC-1-8, compound A × partner): 20.03
HSA volume (HMC-1-8, compound A × partner): 7.01
Loewe Volume (HMC-1-8, compound A × partner): 6.38
Synergy Score (HMC-1-8, compound A × partner): 14.62
Best CI (JIMT-1, compound A × partner): 0.61
Best CI Level (JIMT-1, compound A × partner): 20
Bliss Volume (JIMT-1, compound A × partner): 0.69
HSA volume (JIMT-1, compound A × partner): −1.64
Loewe Volume (JIMT-1, compound A × partner): −0.53
Synergy Score (JIMT-1, compound A × partner): 1.21
Best CI (KPL-1, compound A × partner): 0.76
Best CI Level (KPL-1, compound A × partner): 110
Bliss Volume (KPL-1, compound A × partner): −0.41
HSA volume (KPL-1, compound A × partner): 0.95
Loewe Volume (KPL-1, compound A × partner): 0.45
Synergy Score (KPL-1, compound A × partner): 4.51
Best CI [13]: 0.45
Best CI Level [13]: 150
Bliss Volume [13]: 11.15
HSA volume [13]: 4.64
Loewe Volume [13]: 3.51
Synergy Score [13]: 6.98
Best CI [14]: 0.49
Best CI Level [14]: 60
Bliss Volume [14]: 9.70
HSA volume [14]: −1.47
Loewe Volume [14]: 2.49
Synergy Score [14]: 4.03
Best CI [15]: 0.34
Best CI Level [15]: 70
Bliss Volume [15]: 5.98
HSA volume [15]: 4.74
Loewe Volume [15]: 6.47
Synergy Score [15]: 4.48
Best CI [16]: 0.81
Best CI Level [16]: 165
Bliss Volume [16]: 3.24
HSA volume [16]: −1.91
Loewe Volume [16]: −2.31
Synergy Score [16]: 3.36
Best CI [17]: 1.18
Best CI Level [17]: 120
Bliss Volume [17]: 2.08
HSA volume [17]: 1.62
Loewe Volume [17]: 1.58
Synergy Score [17]: 2.45
Best CI [18]: 0.34
Best CI Level [18]: 70
Bliss Volume [18]: 13.82
HSA volume [18]: 4.06
Loewe Volume [18]: 4.70
Synergy Score [18]: 9.66
Best CI [19]: 0.53
Best CI Level [19]: 105
Bliss Volume [19]: 27.91
HSA volume [19]: 5.89
Loewe Volume [19]: 4.42
Synergy Score [19]: 8.65
Best CI [20]: 0.14
Best CI Level [20]: 150
Bliss Volume [20]: 19.53
HSA volume [20]: 6.00
Loewe Volume [20]: 5.11
Synergy Score [20]: 10.90
Best CI [21]: 0.79
Best CI Level [21]: 20
Bliss Volume [21]: −1.91
HSA volume [21]: −4.36
Loewe Volume [21]: −4.20
Synergy Score [21]: 0.41
Best CI [22]: 0.79
Best CI Level [22]: 80
Bliss Volume [22]: −0.02
HSA volume [22]: 0.03
Loewe Volume [22]: 0.73
Synergy Score [22]: 3.05
Best CI [23]: 0.88
Best CI Level [23]: 155
Bliss Volume [23]: 9.45
HSA volume [23]: 7.38
Loewe Volume [23]: 8.42
Synergy Score [23]: 12.40
Best CI [24]: 0.24
Best CI Level [24]: 95
Bliss Volume [24]: 14.77
HSA volume [24]: 8.48
Loewe Volume [24]: 9.66
Synergy Score [24]: 16.44
